Entries after “also recorded” stand apart in the source; their conditions may differ. Read-outs that look alike come from different tables or passages of the source.
Columns and labels:
CLOCK-SIRT1 interaction = CLOCK-SIRT1 interaction (coimmunoprecipitation) in transfected JEG3 cells; assay type: cell-based, human; settings: treated 1, 2 and 6 h, 1 mM NAD+, 10 mM glucose, 1 mM pyruvate, 100 μM DFO, 100 μM resveratrol, 120 μM splitomicin
Description: The effect of various agents on the CLOCK-SIRT1 interaction was analyzed. […] JEG3 cells were cultured in BME containing 10% FBS and transfected with Myc-CLOCK, Myc-BMAL1, and Flag-SIRT1 constructs. Negative control (NC) represents cells transfected only with Myc-CLOCK and Myc-BMAL1. 24 h after transfection cells were replated, allowed to readhere for another 16 hours, and treated with indicated reagents for 1, 2 and 6 hours. Here the results with 6 h treatment are shown, the same results were obtained at 1 h and 2 h. Nuclear extracts were processed as previously described (Hirayama et al. 2007). This experiment was performed 3 times and a representative result is shown.
Legend: Lane 1: control (C); lane 2: 50% horse serum (HS); lane 3: 1 mM NAD^+ (NAD^+); lane 4: 10 mM glucose (Glc); lane 5: 1 mM pyruvate (Pyr); 6: 100 μM DFO (DF); lane 7: 100 μM resveratrol; (Res) lane 8:120 μM splitomicin (Split). Lane 9: negative control (NC).

SIRT1 = biological target: T1, SIRT1 (Homo sapiens, UniProt Q96EB6); experiment: BMAL1 deacetylation by SIRT1 in JEG3 cells transfected with Myc-CLOCK, Flag-Myc-BMAL1 and SIRT1-HA; assay type: cell-based; settings: 1 mM NAD+ or 10 mM NAM for 16 hr
T1 construct: expressed in transfected cells; host or cells: JEG3
T1 sequence (Q96EB6 1-747): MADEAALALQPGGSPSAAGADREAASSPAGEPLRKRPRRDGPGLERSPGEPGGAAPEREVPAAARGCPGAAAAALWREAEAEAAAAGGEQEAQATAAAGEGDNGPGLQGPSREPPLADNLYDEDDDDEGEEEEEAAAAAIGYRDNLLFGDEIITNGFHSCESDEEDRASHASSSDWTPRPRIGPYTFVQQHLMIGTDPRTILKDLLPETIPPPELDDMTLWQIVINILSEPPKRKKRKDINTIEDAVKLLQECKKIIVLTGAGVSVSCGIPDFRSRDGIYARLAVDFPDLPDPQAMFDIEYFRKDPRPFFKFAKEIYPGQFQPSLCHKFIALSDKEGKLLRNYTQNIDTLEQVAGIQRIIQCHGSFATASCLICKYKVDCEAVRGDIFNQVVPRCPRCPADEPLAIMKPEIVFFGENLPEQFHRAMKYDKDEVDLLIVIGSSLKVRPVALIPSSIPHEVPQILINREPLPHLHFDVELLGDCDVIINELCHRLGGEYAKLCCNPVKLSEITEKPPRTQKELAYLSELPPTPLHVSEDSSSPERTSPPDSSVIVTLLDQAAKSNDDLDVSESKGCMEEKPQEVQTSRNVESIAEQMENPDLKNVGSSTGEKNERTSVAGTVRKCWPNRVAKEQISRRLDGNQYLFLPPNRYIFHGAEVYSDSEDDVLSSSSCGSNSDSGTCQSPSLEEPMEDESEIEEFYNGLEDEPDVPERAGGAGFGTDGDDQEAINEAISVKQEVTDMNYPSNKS
Description: (D) Deacetylation of BMAL1 by SIRT1 is NAD^+ dependent manner. JEG3 cells transfected with Myc-CLOCK and Flag-Myc-BMAL1 and SIRT1-HA were treated with 1 mM NAD^+ or 10 mM NAM for 16 hr before harvest. Immunoprecipitated BMAL1 proteins by FLAG antibody were probed with acetylated BMAL1 antibody. SIRT1 protein amount was detected by SIRT1 antibody.
(§1) Recently we have reported that BMAL1 is rhythmically acetylated by CLOCK and that this event is essential for control of circadian function (Hirayama et al., 2007). We have generated an antibody that specifically recognizes acetylated BMAL1 at Lys537 (FIG. 10). Because of the interplay between CLOCK and SIRT1, we suspected that the deacetylase that could regulate the dynamic levels of BMAL1 acetylation could be SIRT1. To identify which class of HDAC is responsible for deacetylation of BMAL1, we treated cultured cells expressing Myc-CLOCK and Flag-Myc-BMAL1 with class I and II inhibitor, trichostatin A (TSA), and/or class III inhibitor, NAM, for 6 hr and 16 hr, respectively. […] We then coexpressed BMAL1 with CLOCK and confirmed that the anti-AcBMAL1 antibody readily recognizes CLOCK-induced acetylation at Lys537 (FIG. 6B). […] We also confirmed that SIRT1 readily deacetylates BMAL1 in an in vitro deacetylation assay (FIG. 11).

[1] = tested on: dbp expression levels in WT MEFs; experiment: dbp circadian expression in serum-shocked WT MEFs treated with SIRT1 inhibitors, quantitative PCR; assay type: cell-based, mouse
Description: (A) Dbp expression levels in MEFs either treated with SIRT1 inhibitors (10 mMNAM or […]) or not were analyzed by quantitative PCR. The value at time 20 in MEFs without treatment was set to 1.
(§2) MEFs were generated from WT or homozygous Sirt1−/− sibling mice and cultured in DMEM (4.5 g/l glucose) supplemented with 7.5% newborn bovine serum, 2.5% FBS, and antibiotics. JEG3 cells were grown in Basal Medium Eagle supplemented with 10% FBS and antibiotics.
Each quantitative real-time RT-PCR was performed using the Chromo4 real time detection system (BIO-RAD). The PCR primers for mDbp mRNA, mPer2 mRNA, mCry 1 mRNA, 18S rRNA, Dbp UP, Dbp E-box, Dbp 30R, and mSIRT1 mRNA were described (Ripperger and Schibler, 2006; Rodgers et al., 2005; Yamamoto et al., 2004). PCR primers for Dbp TSS were designed using Real-Time PCR Primer Design (https://www.genscript.com/ssl-bin/app/primer), and the sequences are available upon request. For a […] PCR, 50 ng of cDNA template was mixed with the primers to final concentrations of 200 nM and […] of iQ SYBR Green Supermix (BIO-RAD), respectively. The reaction was first incubated at 95° C. for 3 min, followed by 40 cycles at 95° C. for 30 s and 60° C. for 1 min.

Sirt1−/− MEFs = experiment: circadian gene expression in serum-shocked Sirt1−/− MEFs treated with SIRT1 inhibitors; assay type: cell-based, mouse
Description: as §2

[2] = tested on: histone H3 Lys9/Lys14 acetylation at the Dbp transcription start site; experiment: ChIP assay of histone H3 (Lys9/Lys14) acetylation at dbp TSS in serum-shocked MEFs; assay type: cell-based, mouse; settings: WT MEFs after serum shock, 10 mM NAM or
Description: (B-D) Crosslinked cell extracts were isolated from MEF without treatment (B) or with SIRT1 inhibitors, 10 mMNAM (C), or […] (D) at indicated time points after serum shock, subjected to ChIP assay, and analyzed by quantitative PCR with dbp TSS primers (See FIG. 4C). Results of semiquantitative PCR are also shown at the bottom of each experiment. The value at time 16 in MEFs without treatment was set to 1. All data presented are the means±SEM of three independent samples.
Conventional ChIP assay was used for histones from MEFs (Yamamoto et al., 2004). For nonhistone proteins, dual crosslinking ChIP assay (Nowak et al., 2005) was used with slight modifications. After serum shock, cells were washed three times with room temperature PBS, then PBS/1 mM MgCl2 was added. Disuccinimidyl Glutalate (DSG) was added to a final concentration of 2 mM for crosslinking. After 45 min at room temperature, formaldehyde was added to a final concentration of 1% (v/v) and cells incubated for 15 min. […]
We analyzed the acetylation at Lys9 and Lys14 of histone H3 because we had previously found these to be preferential sites of CLOCK's HAT activity (Doi et al., 2006), and also because SIRT1 deacetylase function was described to be targeted to these lysines (Imai et al., 2000). […]

BMAL1 Lys537 acetylation = BMAL1 Lys537 acetylation in JEG3 cells expressing Myc-CLOCK and Flag-Myc-BMAL1, HDAC inhibitor treatment; assay type: cell-based, human; settings: NAM (10 mM) 16 hr
Description: (A) Class III HDAC inhibitor enhances BMAL1 Lys537 acetylation. JEG3 cells transfected with Myc-CLOCK and Flag-Myc-BMAL1 were treated with HDAC I and II inhibitor, TSA […], for 6 hr and HDAC III inhibitor, NAM (10 mM), for 16 hr before harvest. Immunoprecipitated BMAL1 proteins by FLAG antibody were subjected to SDS-PAGE and probed with acetylated BMAL1 or Myc antibodies.
as §1

NC(=O)c1ccc[n+]([C@@H]2O[C@H](COP(=O)([O-])OP(=O)(O)OC[C@H]3O[C@@H](n4cnc5c(N)ncnc54)[C@H](O)[C@@H]3O)[C@@H](O)[C@H]2O)c1 [NAD^+, nicotinamide adenine dinucleotide]
modulation of the CLOCK-SIRT1 interaction (CLOCK-SIRT1 interaction): not significantly modulated
BMAL1 deacetylation by SIRT1 (SIRT1): responsive

NC(=O)c1cccnc1 [NAM, nicotinamide]
dbp expression pattern (circadian oscillation) ([1]; WT MEFs after serum shock, 10 mM NAM or splitomicin): significantly broader phase and higher amplitude in the oscillation; also recorded: loss in stringency of circadian gene expression
effect of SIRT1 inhibitors on circadian gene expression in Sirt1−/− MEFs (Sirt1−/− MEFs): no effect
circadian acetylation of histone H3 Lys9/Lys14 at Dbp TSS [2]: loss in the circadian oscillation of acetylation, generating a noncyclic, high level of Lys9/Lys14 acetylation
acetylation of BMAL1 at Lys537 (BMAL1 Lys537 acetylation): significantly increased
BMAL1 deacetylation by SIRT1 (SIRT1): significantly attenuated

CC(=O)N(O)CCCCCNC(=O)CCC(=O)N(O)CCCCCNC(=O)CCC(=O)N(O)CCCCCN [desferroxamine]
modulation of the CLOCK-SIRT1 interaction (CLOCK-SIRT1 interaction): not significantly modulated

Oc1ccc(C=Cc2cc(O)cc(O)c2)cc1 [resveratrol]
modulation of the CLOCK-SIRT1 interaction (CLOCK-SIRT1 interaction): not significantly modulated

O=C1CCc2c(ccc3ccccc23)O1 [splitomicin]
dbp expression pattern (circadian oscillation) [1]: significantly broader phase and higher amplitude in the oscillation; also recorded: loss in stringency of circadian gene expression
effect of SIRT1 inhibitors on circadian gene expression in Sirt1−/− MEFs (Sirt1−/− MEFs; Sirt1−/− MEFs, data not shown): no effect
circadian acetylation of histone H3 Lys9/Lys14 at Dbp TSS [2]: loss in the circadian oscillation of acetylation, generating a noncyclic, high level of Lys9/Lys14 acetylation
modulation of the CLOCK-SIRT1 interaction (CLOCK-SIRT1 interaction): not significantly modulated
